Columns and labels:
[1] = system: speedwell; assay: Test D pre-/postemergence herbicide test; type: in vivo, Veronica persica; conditions: for Plant response rating: Postemergence, Speedwell, scale 0 to 100; for Plant response rating, Speedwell: Preemergence, scale 0 to 100 (0 no effect, 100 complete control)
Summary of the method: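 Visual ratings from 0 (no effect) to 100 (complete control) were made against untreated controls 7 to 21 days after treatment. Application was both preemergence, on silt loam soil, and postemergence, to 1- to 4-leaf plants 2-18 cm tall; compounds were formulated in a non-phytotoxic surfactant-containing solvent.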

[2] = system: corn; assay: Test E preemergence herbicide test; type: in vivo, Zea mays; set-up: key: 0 = no effect, 100 = complete control
Summary of the method: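 Greenhouse preemergence test: seeds sown into silt loam received compound in a non-phytotoxic solvent mixture with surfactant. Plants grew 21 days before visual comparison with controls. Scores run from 0, no effect, to 100, complete control.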

[3] = system: watergrass, late; assay: Test F flood (paddy) test; type: in vivo, Echinochloa oryzicola; conditions: 21 d, scale 0-100
Summary of the method: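 Visual injury ratings (0 no effect to 100 complete control) were taken 21 d after treatment against untreated controls. Compounds went directly into paddy water held 3 cm above soil, applied at the 2.0–2.5-leaf stage in sterilized Tama silt loam under a 30/27 °C, 16-h greenhouse regime.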

[4] = system: waterhemp; assay: Test E preemergence herbicide test; type: in vivo, Amaranthus rudis; set-up: key: 0 = no effect, 100 = complete control
Text: Seeds of plant species selected from corn (Zea mays), soybean (Glycine max), velvetleaf (Abutilon theophrasti), lambsquarters (Chenopodium album), wild poinsettia (Euphorbia heterophylla), pigweed, palmer (palmer pigweed, Amaranthus palmeri), waterhemp (common waterhemp, Amaranthus rudis), surinam grass (Brachiaria decumbens), crabgrass, large (large crabgrass, Digitaria sanguinalis), crabgrass, Brazil (Brazilian crabgrass, Digitaria horizontalis), panicum, fall (fall panicum, Panicum dichotomiflorum), foxtail, giant (giant foxtail, Setaria faberii), foxtail, green (green foxtail, Setaria viridis), goosegrass (Eleusine indica), johnsongrass (Sorghum halepense), ragweed (common ragweed, Ambrosia elatior), barnyardgrass (Echinochloa crus-galli), sandbur (southern sandbur, Cenchrus echinatus), arrowleaf […] rhombifolia), ryegrass, Italian (Italian ryegrass, Lolium multiflorum), dayflower, VA (Virginia dayflower, Commelina virginica), field bindweed (Convolvulus arvensis), morningglory (Ipomoea coccinea), nightshade (eastern black nightshade, Solanum ptycanthum), kochia (Kochia scoparia), nutsedge, yellow (yellow nutsedge, Cyperus esculentus), cocklebur (common cocklebur, Xanthium strumarium), smartweed (ladysthumb smartweed, Polygonum Persicaria) and beggarticks (hairy beggarticks, Bidens pilosa), were planted into a silt loam soil and treated preemergence with test chemicals formulated in a non-phytotoxic solvent mixture which included a surfactant. Treated plants and controls were maintained in a greenhouse for 21 days, after which time all species were compared to controls and visually evaluated. Plant response ratings, summarized in Table E, are based on a scale of 0 to 100 where 0 is no effect and 100 is complete control. A dash (-) response means no test result.

Row | Compound | Plant response rating, Corn ([2]; 31 g ai/ha) | Plant response rating, Corn ([2]; 62 g ai/ha) | Plant response rating, Corn ([2]; 125 g ai/ha) | Plant response rating, Corn ([2]; 250 g ai/ha) | Plant response rating, Watergrass, Late ([3]; 125 g ai/ha) | Plant response rating, Watergrass, Late ([3]; 250 g ai/ha) | Plant response rating, Watergrass, Late ([3]; 500 g ai/ha) | Plant response rating, Waterhemp ([4]; 31 g ai/ha) | Plant response rating, Waterhemp ([4]; 62 g ai/ha) | Plant response rating, Waterhemp ([4]; 125 g ai/ha) | Plant response rating, Waterhemp ([4]; 250 g ai/ha) | Plant response rating, Speedwell ([1]; 62 g ai/ha) | Plant response rating, Speedwell ([1]; 125 g ai/ha) | Plant response rating, Speedwell ([1]; 31 g ai/ha) | Plant response rating, Speedwell ([1]; 250 g ai/ha) | further results
1 | O=C1NCC(c2ccc(F)c(F)c2)C1C(=O)Nc1cccc(F)c1F (centres unmarked) [Compound 17, N-(2,3-difluorophenyl)-4-(3,4-difluorophenyl)-2-oxo-3-pyrrolidinecarboxamide] | 0 | 0 | 0 | 0 | 80 | 85 | 90 | 0 | 0 | 0 | 0 |  |  |  |  | Plant response rating ([1]; 16 g ai/ha): 0; Plant response rating ([1]; 31 g ai/ha): 0; Plant response rating ([1]; 62 g ai/ha): 0; Plant response rating ([1]; 125 g ai/ha): 0; Plant response rating ([1]; 250 g ai/ha): 0; Plant response rating, Corn ([2]; 16 g ai/ha): 0; Plant response rating, Watergrass, Late ([3]; 1000 g ai/ha): 90; Plant response rating, Watergrass, Late ([3]; 2000 g ai/ha): 95; Plant response rating, Waterhemp ([4]; 16 g ai/ha): 0
2 | O=C1NC[C@H](c2cccc(C(F)(F)F)c2)[C@H]1C(=O)Nc1ccccc1F [Compound 204, (3R,4S)—N-(2-fluorophenyl)-2-oxo-4-[3-(trifluoromethyl)phenyl]-3-pyrrolidinecarboxamide] | 0 | 0 | 0 | 40 | 70 | 98 | 98 | 0 | 0 | 0 | 0 | 10 | 10 | 0 | 70 | 
3 | O=C1NC[C@H](c2cccc(C(F)(F)F)c2)[C@H]1C(=O)Nc1cccc(F)c1F [Compound 206] | 0 | 50 | 40 | 70 | 100 | 100 | 100 | 50 |  | 50 | 50 | 25 | 65 | 0 | 90 | Plant response rating, Watergrass, Late ([3]; 64 g ai/ha): 90
